Experimental data from ChEMBL document CHEMBL4373747 (ACS Med Chem Lett, 2020).

Key:
[1] = target: Histone deacetylase 3 (Homo sapiens, UniProt O15379); assay: Inhibition of recombinant full length human HDAC3 expressed in baculovirus infected Sf9 cells using FAM-RHKK-Ac as substrate incubated for 3 hrs by electrophoretic mobility shift assay
[2] = test system: MV4-11; assay: Induction of apoptosis in human MV4-11 cells assessed as late apoptotic cells at 0.25 uM incubated for 18 hrs by annexin V FITC and PI based flow cytometry (reference value: 9.2 to 9.63 %); format: functional
[3] = target: T1, Histone deacetylase 8 (Homo sapiens, UniProt Q9BY41); assay: Inhibition of recombinant full length human HDAC8 expressed in baculovirus infected Sf9 cells using FAM-RHKK-TFAc as substrate incubated for 3 hrs by electrophoretic mobility shift assay
T1 sequence (Q9BY41 whole entry): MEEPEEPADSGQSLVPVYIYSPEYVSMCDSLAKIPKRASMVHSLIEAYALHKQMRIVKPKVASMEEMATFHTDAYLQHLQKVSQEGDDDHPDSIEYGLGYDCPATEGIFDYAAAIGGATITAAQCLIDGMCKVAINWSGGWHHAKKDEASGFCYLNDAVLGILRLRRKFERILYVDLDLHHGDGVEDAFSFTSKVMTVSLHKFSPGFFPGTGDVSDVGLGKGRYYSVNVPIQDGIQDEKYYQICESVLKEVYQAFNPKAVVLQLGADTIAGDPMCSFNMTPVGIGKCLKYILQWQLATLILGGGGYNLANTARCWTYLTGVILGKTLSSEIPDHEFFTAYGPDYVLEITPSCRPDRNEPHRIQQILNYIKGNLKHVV

[4] = target: T2, Protein deacetylase HDAC6 (Homo sapiens, UniProt Q9UBN7); assay: Inhibition of recombinant full length human HDAC6 expressed in baculovirus infected Sf9 cells assessed as inhibitory constant using FAM-RHKK-Ac as substrate incubated for 5 hrs by electrophoretic mobility shift assay
T2 sequence (Q9UBN7 whole entry): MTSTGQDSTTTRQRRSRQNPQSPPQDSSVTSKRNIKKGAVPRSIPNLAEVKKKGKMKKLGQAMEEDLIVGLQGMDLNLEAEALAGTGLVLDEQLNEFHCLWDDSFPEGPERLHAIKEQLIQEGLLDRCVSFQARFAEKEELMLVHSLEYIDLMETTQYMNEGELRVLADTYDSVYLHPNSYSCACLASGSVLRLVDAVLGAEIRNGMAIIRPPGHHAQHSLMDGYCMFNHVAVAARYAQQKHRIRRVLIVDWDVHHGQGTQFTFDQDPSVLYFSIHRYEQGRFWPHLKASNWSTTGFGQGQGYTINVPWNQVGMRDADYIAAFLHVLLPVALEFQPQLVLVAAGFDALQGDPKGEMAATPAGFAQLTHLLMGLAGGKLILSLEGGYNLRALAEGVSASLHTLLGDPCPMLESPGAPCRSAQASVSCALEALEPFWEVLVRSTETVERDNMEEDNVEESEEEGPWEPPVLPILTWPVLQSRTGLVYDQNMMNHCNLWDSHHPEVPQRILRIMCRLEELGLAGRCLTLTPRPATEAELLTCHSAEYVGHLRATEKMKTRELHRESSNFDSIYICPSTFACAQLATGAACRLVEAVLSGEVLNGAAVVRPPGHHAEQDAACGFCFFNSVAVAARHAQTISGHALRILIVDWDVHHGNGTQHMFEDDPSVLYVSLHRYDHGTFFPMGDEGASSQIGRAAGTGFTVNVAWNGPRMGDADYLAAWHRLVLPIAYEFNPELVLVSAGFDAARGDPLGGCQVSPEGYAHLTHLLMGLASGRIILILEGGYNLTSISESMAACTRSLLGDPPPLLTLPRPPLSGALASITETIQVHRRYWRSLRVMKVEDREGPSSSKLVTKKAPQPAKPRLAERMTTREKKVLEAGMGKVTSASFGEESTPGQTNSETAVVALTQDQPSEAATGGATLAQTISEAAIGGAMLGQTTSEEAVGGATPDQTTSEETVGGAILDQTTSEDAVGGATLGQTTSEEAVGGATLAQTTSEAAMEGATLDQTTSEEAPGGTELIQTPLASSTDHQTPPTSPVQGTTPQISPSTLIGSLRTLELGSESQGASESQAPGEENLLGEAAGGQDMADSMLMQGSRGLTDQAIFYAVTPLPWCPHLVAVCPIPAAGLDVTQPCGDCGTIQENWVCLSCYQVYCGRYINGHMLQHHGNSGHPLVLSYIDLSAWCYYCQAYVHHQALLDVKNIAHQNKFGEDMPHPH

[5] = test system: HeLa; assay: Cytotoxicity against human HeLa cells assessed as reduction in cell viability incubated for 72 hrs by cell-titer blue assay; format: functional, cell-based
[6] = test system: MV4-11; assay: Induction of apoptosis in human MV4-11 cells assessed as viable cells at 4 uM incubated for 18 hrs by annexin V FITC and PI based flow cytometry (reference value: 53.01 to 53.07 %); format: functional; details: Homo sapiens, MV4-11, 18 h; read-out: Activity
[7] = Stability in ICR/CD1 mouse hepatocytes assessed as half life at 1 uM measured upto 120 mins by LCMS analysis; format: ADME, cell-based, Hepatocyte; details: 2 h
[8] = target: Histone deacetylase 5 (Homo sapiens, UniProt Q9UQL6); assay: Inhibition of recombinant full length human HDAC5 expressed in baculovirus infected Sf9 cells using FAM-RHKK-TFAc as substrate incubated for 3 hrs by electrophoretic mobility shift assay
Sequence of Histone deacetylase 5 (Q9UQL6 whole entry): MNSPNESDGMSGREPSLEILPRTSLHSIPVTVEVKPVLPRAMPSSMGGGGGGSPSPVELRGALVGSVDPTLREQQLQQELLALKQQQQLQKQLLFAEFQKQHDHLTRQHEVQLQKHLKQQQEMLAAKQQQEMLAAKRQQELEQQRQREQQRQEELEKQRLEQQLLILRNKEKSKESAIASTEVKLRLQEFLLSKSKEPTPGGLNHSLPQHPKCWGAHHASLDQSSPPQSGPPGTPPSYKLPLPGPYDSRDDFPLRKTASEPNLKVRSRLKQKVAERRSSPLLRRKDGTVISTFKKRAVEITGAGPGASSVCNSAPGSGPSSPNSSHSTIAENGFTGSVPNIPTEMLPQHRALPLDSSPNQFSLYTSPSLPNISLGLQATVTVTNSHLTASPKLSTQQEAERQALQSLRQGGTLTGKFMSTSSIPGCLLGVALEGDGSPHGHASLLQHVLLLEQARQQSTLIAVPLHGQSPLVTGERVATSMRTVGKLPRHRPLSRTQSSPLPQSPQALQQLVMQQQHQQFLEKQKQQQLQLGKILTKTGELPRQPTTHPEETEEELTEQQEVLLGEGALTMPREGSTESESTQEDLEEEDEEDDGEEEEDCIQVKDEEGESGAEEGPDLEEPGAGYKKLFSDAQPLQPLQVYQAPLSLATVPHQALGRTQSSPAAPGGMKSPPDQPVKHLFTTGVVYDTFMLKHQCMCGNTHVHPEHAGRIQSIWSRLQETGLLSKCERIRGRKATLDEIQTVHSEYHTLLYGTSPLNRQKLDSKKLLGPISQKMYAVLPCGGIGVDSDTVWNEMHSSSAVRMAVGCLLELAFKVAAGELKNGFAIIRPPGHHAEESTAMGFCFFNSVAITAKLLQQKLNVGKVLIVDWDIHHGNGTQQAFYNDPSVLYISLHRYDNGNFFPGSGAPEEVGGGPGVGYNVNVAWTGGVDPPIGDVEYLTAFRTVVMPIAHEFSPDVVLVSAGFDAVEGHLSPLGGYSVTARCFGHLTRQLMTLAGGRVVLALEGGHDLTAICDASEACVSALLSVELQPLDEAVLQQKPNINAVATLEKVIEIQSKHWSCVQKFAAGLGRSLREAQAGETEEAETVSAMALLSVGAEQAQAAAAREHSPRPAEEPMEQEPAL

Sequence of Histone deacetylase 3 (O15379 whole entry): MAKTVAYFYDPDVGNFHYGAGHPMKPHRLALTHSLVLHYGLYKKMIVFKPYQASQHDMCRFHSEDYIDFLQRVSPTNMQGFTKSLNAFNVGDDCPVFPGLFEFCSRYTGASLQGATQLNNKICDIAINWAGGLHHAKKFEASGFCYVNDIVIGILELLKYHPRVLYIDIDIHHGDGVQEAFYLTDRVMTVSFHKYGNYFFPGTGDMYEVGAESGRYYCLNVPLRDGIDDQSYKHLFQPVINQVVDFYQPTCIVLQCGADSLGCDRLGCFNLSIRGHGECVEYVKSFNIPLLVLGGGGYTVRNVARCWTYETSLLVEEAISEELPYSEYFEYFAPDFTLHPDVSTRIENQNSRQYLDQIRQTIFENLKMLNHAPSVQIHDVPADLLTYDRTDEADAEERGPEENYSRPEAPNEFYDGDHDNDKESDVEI

IC50 [1]: 187 nM | IC50 [3]: 245 nM | Ki [4]: 35 nM | t1/2 [7]: 28.3 min | IC50 [8]: > 1000 nM
SMILES: CC(C)(C)c1ccc(C(=O)Nc2ccc(C(=O)NO)cc2)cc1
Activity [2]: 8.74% | IC50 [5]: 2530 nM | viability at 4 µM [6]: 16.3%
